Source: patent publication US20250281554A1, “COMPOSITION FOR IMPROVING DRUG SENSITIVITY OF ANTIBACTERIAL DRUG TO METHICILLIN-RESISTANT STAPHYLOCOCCUS AUREUS (MRSA), COMPOSITION FOR TREATING OR PREVENTING MRSA INFECTION, AND COMPOSITION FOR REDUCING VIRULENCE OF MRSA” (priority 2021, published 2025)
Values after ≈ are worked out from the molar mass of the structure shown.

Columns and labels:
Assay type in all cases: cell-based, methicillin-resistant Staphylococcus aureus
[1] = tested on: wild-type strain (MRSA2007-13 strain); assay: drug sensitivity test (disk method), wild-type strain; settings: MRSA2007-13 WT, 37° C., 24 hours; for drug sensitivity rating (disk method), WT: Mueller-Hinton II agar; for diameter of inhibitory zone, WT: number in brackets; as to drug sensitivity rating (disk method), WT: key: resistance (R); sensitivity(S)
Protocol: (§1) The drug sensitivities of a wild-type strain (MRSA2007-13 strain) and a mutant (SAm1-201) to β-lactam antibacterial drugs were measured in a drug sensitivity test (disk method). The test method will be explained. The wild-type strain (MRSA2007-13 strain) or the mutant (SAm1-201) was streaked on LB-Agar, and cultured at 37° C. overnight. The following day, single colonies were collected, added to 5 mL of Trypticase soy broth, and subjected to shaking culture at 37° C. overnight. After culturing, the bacterial solution was adjusted to McFarland turbidity No. 0.5, and evenly smeared on Mueller-Hinton II agar medium with a sterile cotton swab. After disposing sensitivity disks on the agar medium, culture was performed at 37° C. for 24 hours, and the diameter of an inhibitory zone formed around each disk was measured in millimeters.

[2] = tested on: mutant (SAm1-201) of MRSA2007-13; assay: drug sensitivity test (disk method), mutant SAm1-201; settings: MRSA2007-13 SAm1-201, 37° C., 24 hours; for drug sensitivity rating (disk method), SAm1-201: Mueller-Hinton II agar; for diameter of inhibitory zone, SAm1-201: number in brackets; as to drug sensitivity rating (disk method), SAm1-201: key: resistance (R); sensitivity(S)
Protocol: as §1

[3] = tested on: wild-type strain (MRSA2007-13 strain); assay: drug sensitivity test (MIC method), wild-type strain; settings: MRSA2007-13 WT; for MIC, WT: dry plate, cultured 20 hours, in µg/mL (unit assumed); as to drug sensitivity rating (MIC method), WT: key: resistance (R); sensitivity(S)
Protocol: (§2) Next, the drug sensitivities of a wild-type strain (MRSA2007-13 strain) and mutated strains having a mutation in both mgrA and femA (SAm1-201, SAm1-206, SAm1-210) to antibacterial drugs were measured in a drug sensitivity test (MIC method). The test method will be explained. A bacterial solution (a wild-type strain or a mutant) precultured overnight was diluted with sterile physiological saline to reach OD600≈0.26, and 25 μL of the bacterial solution was added to 12 mL of Mueller-Hinton liquid medium (Eiken Chemical Co., Ltd.). To each well of a dry plate (Eiken Chemical Co., Ltd.), […] of the bacterial solution was added, and cultured for 20 hours. After culturing, the MIC was determined based on determination criteria for the dry plate.

[4] = tested on: MRSA2007-13 SAm1-201 (mgrA mutation and femA mutation); assay: drug sensitivity test (MIC method), SAm1-201; settings: for MIC, SAm1-201: dry plate, cultured 20 hours
Protocol: as §2

[5] = tested on: MRSA2007-13 SAm1-206 (mgrA mutation and femA mutation); assay: drug sensitivity test (MIC method), SAm1-206; settings: dry plate, cultured 20 hours, unit assumed
Protocol: as §2

[6] = tested on: MRSA2007-13 SAm1-210 (mgrA mutation and femA mutation); assay: drug sensitivity test (MIC method), SAm1-210; settings: dry plate, cultured 20 hours, unit assumed
Protocol: as §2

[7] = tested on: wild-type strain (MRSA2007-13 strain); assay: growth-inhibitory effect of phage and oxacillin added from the beginning, turbidimetry; settings: WT MRSA, ϕSA012 ≈1.0×10^7 pfu/mL (MOI≈0.1), oxacillin sodium 16 μg/mL, 37° C.
Protocol: The test method is shown in the following. This test was performed by means of turbidimetry. A bacterial solution (wild-type strain (MRSA2007-13 strain)) precultured overnight was diluted with LB-Broth to reach OD600≈1.0, and further 10-fold diluted (˜ 1.0×10^8 cfu/mL).
The plate was set in a Sunrise Rainbow Thermo RC (Tecan Japan Co., Ltd.), and shaking culture was performed at 37° C. for 90 hours while absorbance values at a wavelength of 590 nm were measured every 15 minutes.

| Compound | drug sensitivity rating (disk method), WT [1] | drug sensitivity rating (disk method), SAm1-201 [2] | diameter of inhibitory zone, SAm1-201 [2] | MIC, WT [3] | MIC, SAm1-201 ([4]; unit assumed) | MIC, SAm1-206 [5] | MIC, SAm1-210 [6] | diameter of inhibitory zone, WT [1] | MIC, SAm1-201 [4] | bacterial growth inhibition (turbidity) over 90 hours [7] | drug sensitivity rating (MIC method), WT ([3]; symbol in brackets) | drug sensitivity rating (MIC method), SAm1-201 ([4]; symbol in brackets) |
| --- | --- | --- | --- | --- | --- | --- | --- | --- | --- | --- | --- | --- |
| CC1=C(C(=O)O)N2C(=O)[C@@H](NC(=O)[C@H](N)c3ccccc3)[C@H]2SC1 [CEX, cephalexin] | R | S | 29 millimeters |  |  |  |  |  |  |  |  |  |
| CN(C)[C@@H]1C(O)=C(C(N)=O)C(=O)[C@@]2(O)C(O)=C3C(=O)c4c(O)cccc4[C@@](C)(O)[C@H]3[C@H](O)[C@@H]12 [OTC, oxytetracycline] |  |  |  | 128 | 64 µg/mL (≈ 139 µM) | 128 µg/mL (≈ 278 µM) | 128 µg/mL (≈ 278 µM) |  |  |  |  |  |
| C[C@@H](O)[C@H]1C(=O)N2C(C(=O)O)=C(S[C@@H]3CN[C@H](C(=O)N(C)C)C3)[C@H](C)[C@H]12 [MEPE, meropenem] | R | S | 28 millimeters | 32 |  | 4 µg/mL (≈ 10.4 µM) | 0.125 µg/mL (≈ 0.326 µM) | 7 millimeters | 0.125> |  |  |  |
| C[C@@H](O)[C@H]1C(=O)N2C(C(=O)O)=C([C@H]3CCCO3)S[C@H]12 [FRPM, faropenem] | R | S | ≥ 50 millimeters | >128 |  | 0.25 µg/mL (≈ 0.876 µM) | 0.125 µg/mL (≈ 0.438 µM) |  | 0.125> |  |  |  |
| C[C@@H](O)[C@H]1C(=O)N2C(C(=O)O)=C(SCCN=CN)C[C@H]12 [IPM, imipenem] | R | S | 44 millimeters | 64 |  | 1 µg/mL (≈ 3.34 µM) | 0.125 µg/mL (≈ 0.418 µM) | 9 millimeters | 0.125> |  |  |  |
| C[C@H]1c2cccc(O)c2C(=O)C2=C(O)[C@]3(O)C(=O)C(C(N)=O)=C(O)[C@@H](N(C)C)[C@@H]3[C@@H](O)[C@@H]21 [DOXY, doxycycline] |  |  |  | 8 | 4 µg/mL (≈ 9 µM) | 8 µg/mL (≈ 18 µM) | 4 µg/mL (≈ 9 µM) |  |  |  |  |  |
| penicillin [PCG] |  |  |  | >16 | 2 µg/mL | 2 µg/mL | 4 µg/mL |  |  |  |  |  |
| CC/C=C(\C(=O)N[C@@H]1C(=O)N2C(C(=O)O)=C(COC(N)=O)CS[C@H]12)c1csc(N)n1 [CFPN, cefcapene] |  |  |  | >2 | < 0.5 µg/mL | < 0.5 µg/mL | < 0.5 µg/mL |  |  |  |  |  |
| Cc1onc(-c2ccccc2)c1C(=O)N[C@@H]1C(=O)N2[C@@H]1SC(C)(C)[C@@H]2C(=O)O [MPIPC, oxacillin] | R | S | 35 millimeters |  | 0.125 µg/mL (≈ 0.311 µM) | 4 µg/mL (≈ 9.96 µM) | 0.125 µg/mL (≈ 0.311 µM) |  |  | failed in inhibiting bacterial growth |  |  |
| CO/N=C(\C(=O)N[C@@H]1C(=O)N2C(C(=O)O)=C(/C=C\c3scnc3C)CS[C@H]12)c1csc(N)n1 [CDTR, cefditoren] |  |  |  | >2 | < 0.5 µg/mL | < 0.5 µg/mL | < 0.5 µg/mL |  |  |  |  |  |
| Cc1nnc(SCC2=C(C(=O)O)N3C(=O)[C@@H](NC(=O)Cn4cnnn4)[C@H]3SC2)s1 [CEZ, cefazolin] |  |  |  | >128 |  | 1 µg/mL (≈ 2.2 µM) | 0.25 µg/mL (≈ 0.55 µM) |  |  |  | (R) | (S) |
| CCN1CCN(c2cc3c(cc2F)c(=O)c(C(=O)O)cn3C2CC2)CC1 [ERFX, enrofloxacin] |  |  |  | 128 | 64 µg/mL (≈ 178 µM) | 64 µg/mL (≈ 178 µM) | 32 µg/mL (≈ 89 µM) |  |  |  |  |  |
| COCC1=C(C(=O)O)N2C(=O)[C@@H](NC(=O)/C(=N\OC)c3csc(N)n3)[C@H]2SC1 [CPDX, cefpodoxime] | R | S | 28 millimeters |  |  |  |  |  |  |  |  |  |
| CC1(C)S[C@@H]2[C@H](NC(=O)[C@H](N)c3ccc(O)cc3)C(=O)N2[C@H]1C(=O)O [AMPC, amoxicillin] | R | S | 34 millimeters | 64 | 8 µg/mL (≈ 21.9 µM) | 16 µg/mL (≈ 43.8 µM) | 2 µg/mL (≈ 5.47 µM) |  |  |  |  |  |
